In experiment [1] the target is T1, c-MYC (Homo sapiens, UniProt P01106). Put plainly: CURE-PRO-mediated c-MYC degradation in HCT1116 cells, Western blot or WES. The experiment is classed as cell-based. On the set-up: endogenous in cells; host or cells: HT29. The procedure:
(§1) Namalwa, Ramosm HeLa, MCF7, or HT29 HCT116 cells (2.5-3×10^6) were treated for 24 hours with the indicated compounds solubilized in DMSO. The cells were washed in ice-cold PBS and were then lysed in RIPA lysis buffer (150 mM NaCl, 5 mM EDTA, 1% NP-40, 0.5% sodium deoxycholate, 0.1% SDS, 50 mM Tris, pH 8.0.) with Roche protease inhibitor complete cocktail and phosphatase inhibitors (10 mM sodium fluoride, 10 mM sodium pyrophosphate, 1 mM sodium orthovanadate and 20 mM β-glycerophosphate). The total protein concentrations were determined by Bradford Protein Assay (Pierce) and 10-20 μg of protein was loaded onto 4-15% Tris-Glycine gradient gels (Biorad). After standard gel electrophoresis, the separated proteins were transferred to PVDF membrane by wet transfer. The immunoblots were then blocked for 1 hour in 5% skim milk in TBST or 5% BSA in TBST, according to manufacturer's instructions, before an overnight incubation at 4° C. with indicated antibodies and membranes. Membranes were then incubated with the appropriate horseradish peroxidase-conjugated secondary antibodies (1:5,000 dilution) for 1 h at room temperature and the bands were visualized using the Clarity Max Western ECL Substrate (Biorad) and the ChemiDoc Imaging System (Biorad). Signal was detected with ECL Western Blotting Substrate (Pierce) and X-ray film processed with a Konica SRX-101 X-ray film processor or captured by Bio-Rad's Chemidoc Imaging system.
(§2) WES Simple analysis was performed on WES system (ProteinSimple-Biotechne) according to the manufacturer's instructions. Total protein concentrations of cell lysates were determined by the Pierce BCA kit (Thermo Fisher). 3 μL of 0.3 μg/μL of the protein lysate was loaded onto a 12- to 230-kDa WES assay plate (ProteinSimple) where 300 nL sample was withdrawn through a capillary, subjected to electrophoretic separation of proteins by size, and followed by the simultaneous, HRP-based detection of proteins using the Anti-Rabbit Detection Module (Proteinsimple: #DM-001). The electropherograms were checked then the automatic peak detection was manually corrected if it was required.
HCT1116 cells (2.5×10^6) were treated for 24 h with the compounds solubilized in DMSO. Compounds were added at 10 nM-10 μM each. Standardized protein samples were electrophoresed and imaged as described in the immunoblotting or WES (Proteinsimple) sections above. c-MYC monomers, MYC-N20 (FIG. 100, a 10074-G5 derivative comprising diol linkers), and MYC-N10 (FIG. 101), MYC-N6 (FIG. 102), and MYC-N9 (FIG. 103) (10058-F4 derivatives comprising diol linkers), and MDM2 ligands, 8310 and 8312 (Nutlin 3a derivatives comprising boronic acid linkers) were combined in a 1:1 ratio.
HCT1116 cells (2.5×10^6) were treated for 24 h with the compounds solubilized in DMSO. Compounds were added at 1 μM-10 μM each.
(In general: Immunoblotting shows a protein as a band on a membrane.)

Experiment [2] has as its target T1, c-MYC. Put plainly: Summary of C-MYC degradation by CURE-PRO pairs, estimated from Western Blot or WES. Details: endogenous in cells; host or cells: HT29. It is filed as cell-based. The essentials: (§3)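 Namalwa, Ramos, HeLa, MCF7, HT29 or HCT116 cells treated 24 h with compounds in DMSO; RIPA lysates analysed by Western blot (ECL) or capillary WES immunodetection. Check mark denotes 30% to 70% or higher protein degradation.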

The test system of experiment [3] is SLC19A1. Nature of the experiment: RT-PCR of c-MYC downstream target gene SLC19A1 in HeLa cells. Particulars: single compound, HeLa, 10 μM, 24 h. The experiment is classed as cell-based, Human. The procedure:
The suppression of the expression of the downstream c-MYC target, SLC19A1, was measured by RT-PCR using Power SYBR® Green Cells-to-Ct™ Kit (Life Technologies). Adherent cells were plated on 96 well plates at 5,000 cells per well were treated for 24 h with monomer compounds and compounds capable of reversible interactions (1 nM-100 μM). Cells were subsequently washed in ice-cold PBS processed according to the manufacturer's instructions. Quantitative real-time PCR was performed using a ViiA™ 7 Real-time PCR System (Applied Biosystems, Foster City, Calif., USA). GAPDH and ACTB served as internal controls.
HeLa cells (1×10^4) were treated for 24 hours in 96 well plates with the compounds solubilized in DMSO. Compounds were added at 10 μM each and RNA expression measured by the Cells-to Ct method described above (Thermofisher).

The subject of experiment [4] is Aiolos and Ikaros. Put plainly: Aiolos and Ikaros expression in Namalwa cells, Western blot. The experiment is classed as cell-based. Particulars: monomer alone, 100 nM-10 μM, 24 h. The procedure:
as §1
(§4) Namalwa (FIG. 78) or Ramos (FIG. 79) cells (5×10^6) were treated for 24 h with the compounds solubilized in DMSO. Compounds were added at 100 nM-10 μM each. Standardized protein samples were electrophoresed and imaged as described in the immunoblotting section above. FIGS. 78 and 79 depict the effects of the E3 ubiquitin ligase CURE-PRO monomer ligands (100 nM-10 μM, 24 h) targeting Cereblon on the expression of Aiolos and Ikaros, two downstream proteins that are known to be ubiquitinated and degraded after IMiDs bind to CRBN.

The subject of experiment [5] is Aiolos and Ikaros. Put plainly: Aiolos and Ikaros expression in Ramos cells, Western blot. It is filed as cell-based. Particulars: monomer alone, 100 nM-10 μM, 24 h. The procedure:
as §1, §4

Experiment [6] has as its system caspase 3/7. Put plainly: Caspase-Glo 3/7 assay, Namalwa cells. Particulars: 1:1 with CRBN ligand 8047, Namalwa, 24 h. It is filed as cell-based. The procedure: Caspase-glo® assay (Promega) was conducted following the manufacturer's recommendations. Cells were seeded at a density of 5000 cells/well in a white 96 well plates (Corning, #3917) in a total volume of 100 μl with respective monomers, combinations of BRD ligands together with E3 ligase ligands or vehicle control treatment. After a 24 h incubation, 100 μl of the […] substrate was added per well and luminescence was read on a Spectramax M5 (Molecular Devices).
Namalwa cells (5×10^4) were treated for 24 hours with the compounds solubilized in DMSO. FIG. 57 is a bar graph depiction of fold increase of apoptosis assessed via caspase 3/7 activity using the Caspase-Glo assay (Promega) described above.
Molm-13 (FIG. 76A) or Namalwa (FIG. 76B) cells (5×10^4) were treated for 24 hours with the compounds solubilized in DMSO in white 96 well plates (10 nM-10 μM solubilized in DMSO). FIG. 76 is a bar graph depiction of fold increase of apoptosis assessed via caspase 3/7 activity using the Caspase-Glo assay (Promega) described above.

Experiment [7] concerns the target T2, BRD4 (Homo sapiens, UniProt O60885). Nature of the experiment: Summary of BRD4 degradation by CURE-PRO pairs, estimated from Western Blot or WES. It is filed as cell-based. On the set-up: endogenous in cells. The method in brief:
as §3

Experiment [8] addresses T2, BRD4. Put plainly: CURE-PRO-mediated BRD4 degradation in HeLa cells, Western blot. On the set-up: endogenous in cells; host or cells: HeLa. Particulars: 24 h. It is filed as cell-based. The method in brief:
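HeLa cells (2.5×10^6) treated 24 h with DMSO-solubilized compounds, degrader pairs combined 1:1, at 1 nM-1 μM, 1-10 μM, 10 μM or 10 and 100 μM each depending on series. RIPA lysates (10-20 μg protein) run on SDS-PAGE and immunoblotted for BRD4 with ECL detection.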

Experiment [9] has as its target T2, BRD4. Nature of the experiment: CURE-PRO-mediated BRD4 degradation in HeLa cells, WES capillary electrophoresis (ProteinSimple). It is filed as cell-based. Details: endogenous in cells; host or cells: HeLa. The procedure: All cell lines were purchased from ATCC or DSMZ and grown at 37° C. with 5% CO2. Human HeLa cells were cultured in complete growth medium (Dulbecco's modified Eagle's medium (DMEM) supplemented with 10% FBS); MCF7 cells were cultured in complete growth medium (Dulbecco's modified Eagle's medium (DMEM) supplemented with 10% FBS and 0.01 mg/ml human recombinant insulin (Sigma Aldrich); Namalwa and Ramos cells were cultured in complete growth medium (RPMI 1640 medium supplemented with 10% FBS); HCT116 and HT29 cells were cultured in complete growth medium (McCoy's 5a Medium supplemented with 10% FBS). For cellular degradation of BRD4 studies cells were seeded in a 12-well plate at 70-80% confluency, allowed to attach overnight, and incubated with the indicated compounds for the indicated time. When indicated, a 15-minute pretreatment with 10 μM pomalidomide, 10 μM VHL298, 10 μM Nutlin3a, 1 μM MG-132 or 1 μM Carfilzomib was performed before the addition of CURE-PROs. For washout studies, after CURE-PRO treatment, media was aspirated and incubated with complete medium for the indicated time before lysis.
as §2
HeLa cells (2.5×10^6) were treated for 4-24 hours with the compounds solubilized in DMSO. After 4 hours, indicated points were washed and cells were left in full growth media. Compounds were added at 10 μM each. Standardized protein samples were electrophoresed and imaged as described in the WES ProteinSimple section above. FIGS. 44 and 45 depict the time-dependence of CURE-PRO-mediated BRD4 degradation with the BRD-E52 ligand (FIG. 44) and BRD-E72 ligand (FIG. 45), both JQ1 derivatives comprising of boronic acid linkers, and the CRBN binding ligands (8046, 8047, and 8066), pomalidomide derivatives comprising diol linkers.
HeLa cells (2.5×10^6) were treated for 24 hours with the compounds solubilized in DMSO. Compounds were added at 100 nM-10 μM each. Standardized protein samples were electrophoresed and imaged as described in the WES ProteinSimple section above. FIG. 46 depicts the concentration-dependence of CURE-PRO-mediated BRD4 degradation and the requirement for monomer dimerization.

Each structure is given as a SMILES string. Entries after “also recorded” stand apart in the source; their conditions may differ.

T1 sequence (P01106 whole entry): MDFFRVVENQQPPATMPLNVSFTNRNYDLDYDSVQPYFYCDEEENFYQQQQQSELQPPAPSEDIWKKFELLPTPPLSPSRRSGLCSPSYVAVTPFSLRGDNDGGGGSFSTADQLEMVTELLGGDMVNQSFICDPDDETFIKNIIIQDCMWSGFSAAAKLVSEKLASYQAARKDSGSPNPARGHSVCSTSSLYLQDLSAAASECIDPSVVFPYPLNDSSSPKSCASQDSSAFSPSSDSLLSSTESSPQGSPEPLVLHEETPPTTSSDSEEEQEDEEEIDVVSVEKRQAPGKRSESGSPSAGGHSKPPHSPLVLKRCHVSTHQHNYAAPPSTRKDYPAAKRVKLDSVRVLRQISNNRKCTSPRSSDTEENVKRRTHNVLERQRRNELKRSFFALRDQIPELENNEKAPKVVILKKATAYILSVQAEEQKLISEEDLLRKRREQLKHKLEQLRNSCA

As to `CCc1ccc(/C=C2\SC(=O)N(CCOCCNC(=O)c3cccc(B(O)O)c3)C2=O)cc1` [MYC-E4], the c-MYC degradation result in experiment [1] (1:1 with MDM2 ligand 8313, HCT1116, 24 h, 1 μM-10 μM each) is on record as “had no effect”; in experiment [1] (1:1 with MDM2 ligand 8314, HCT1116, 24 h, 1 μM-10 μM each), “caused degradation of c-MYC protein at 10 μM; also recorded: Degradation was noted”; in experiment [1] (monomer dosed alone, HCT1116, 24 h), “No loss of c-MYC protein was noted”. In addition, in experiment [2] (Table 7, aryl-boronic acid MYC ligand + 8047), the “Degradation of C-MYC, combination with CRBN ligand 8047” value is “√ (A black check mark indicates efficacy of 30% to 70% or higher protein degradation)”. Moreover, the “Degradation of C-MYC, combination with MDM2 ligand 8314” value in [2] (Table 8, aryl-boronic acid MYC ligand + 8314) was “√ (A black check mark indicates efficacy of 30% to 70% or higher protein degradation)”.

For `Nc1cccc2c1C(=O)N(C1CCC(=O)NC1=O)C2=O` (stereo not shown) [Pomalidomide, pomalidomide, reference compound], the “suppression of SLC19A1 expression” value in experiment [3] is “no suppression”. In addition, the “expression of Aiolos and Ikaros” value in [4] is “caused greater loss of Aiolos and Ikaros protein than the CURE-PRO derivatives at equimolar concentrations”; in experiment [5], “caused greater loss of Aiolos and Ikaros protein than the CURE-PRO derivatives at equimolar concentrations”.

Consider `CCNC(=O)C[C@@H]1N=C(c2ccc(Sc3cccc(B(O)O)c3)cc2)c2cc(OC)ccc2-n2c(C)nnc21` [BRD-E52, (3-((4-((4S)-4-(2-(ethylamino)-2-oxoethyl)-8-methoxy-1-methyl-4H-benzo[f][1,2,4]triazolo[4,3-a][1,4]diazepin-6-yl)phenyl)thio)phenyl)boronic acid], for which the “caspase 3/7 activation” value in [6] is on record as “demonstrates activation of caspase 3/7; also recorded: marked caspase activation”. In addition, the “Degradation of BRD4, combination with CRBN ligand 8047” value in experiment [7] (Table 1, aryl-boronic acid BRD4 ligand + 8047) is given as “√ (A black check mark indicates efficacy of 30% to 70% or higher protein degradation)”. Moreover, the “Degradation of BRD4, combination with CRBN ligand 8066” value in experiment [7] (Table 1, aryl-boronic acid BRD4 ligand + 8066) was “√ (A black check mark indicates efficacy of 30% to 70% or higher protein degradation)”. Besides, in experiment [8] (1:1 with 8047, 10 μM, pomalidomide preincubated 15 min at equimolar concentration), the “BRD4 degradation after pomalidomide preincubation” value is “inhibition of CURE-PRO-mediated BRD4 degradation”. Further, the BRD4 degradation result is given as “failed to induce BRD4 degradation” in [8] (BRD ligand with pomalidomide (no 8047), HeLa, 10 μM) and “causes degradation of BRD4; also recorded: CURE-PRO-mediated degradation of BRD4” in [8] (co-treated 1:1 with CRBN ligand 8047, HeLa, 10 μM each). Also, the “sustained BRD4 degradation after drugs are washed out” value in [9] (co-dosed with 8047, 10 μM each, washed after 4 h) is reported as “up to 8 h”. Besides, in experiment [9] (co-dosed with CRBN ligand 8047, HeLa, 10 μM each, 4-24 h), the “BRD4 degradation, time course” value is “marked BRD4 degradation after 4 h”. Moreover, the “concentration-dependent BRD4 degradation” value in experiment [9] (co-dosed with CRBN ligand 8047, HeLa, 24 h, 100 nM-10 μM each) was “marked BRD4 degradation”. In addition, in experiment [9] (with CRBN ligand 8047, HeLa, 24 h, 100 nM-10 μM each), the “concentration from which BRD4 protein expression decreases” value is at least 300 nM.

With `Cc1sc2c(c1C)C(c1ccc(Cl)cc1)=N[C@@H](CC(=O)Nc1ccc(OCCOCCOCCOCCNc3cccc4c3C(=O)N(C3CCC(=O)NC3=O)C4=O)cc1)c1nnc(C)n1-2` (stereo partly shown) [ARV-825, reference compound], the “suppression of SLC19A1 expression” value in [3] is “Complete suppression; also recorded: completely suppressed”.

These data come from patent US20230285570A1, “THERAPEUTICALLY USEFUL CURE-PRO MOLECULES FOR E3 LIGASE MEDIATED DEGRADATION OF PROTEINS, AND METHODS OF MAKING AND USING THEM” (CORNELL UNIVERSITY, priority 2020, published 2023).
